Test results: patent publication US20120245137A1 (Zalicus Pharmaceuticals Ltd., priority 2009, published 2012)

Tests used:
Assay type in all cases: cell-based
[1] = molecular target: human α1H T-type channels (Homo sapiens, UniProt O95180); assay: T-type calcium channel block, whole cell patch clamp, α1H; conditions: HEK cells stably expressing human α1H; mainly non-inactivated protocol; values above 10,000 nM represented as 10000
Procedure, shortened: (§1)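 Read-out: current block in whole-cell patch clamp of HEK 293 cells stably expressing human α1G or α1H subunits. Compounds were perfused locally in external solution (0.1-0.01% DMSO) under resting and inactivating voltage protocols.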

[2] = molecular target: N-type calcium channel subunits (α1B, α2δ, and β3a) (Homo sapiens, UniProt Q00975); assay: Block of Cav2.2 channel, whole cell voltage clamp, manual and PatchXpress; conditions: Table 5; table follows Assay Example 3 (whole cell voltage clamp / PatchXpress); assay not given
Procedure, shortened: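 Percent block taken as current amplitude ratio with versus without compound, applied in rising doses; IC50 fitted where one cell received multiple doses. Protocol: 50 ms pulses to +20 mV at 0.067 Hz from […] or −90 mV holding; P/n leak subtraction, no junction-potential correction; manual and PatchXpress recordings.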

[3] = molecular target: human α1G T-type channels (Homo sapiens, UniProt O43497); assay: T-type calcium channel block, whole cell patch clamp, α1G; conditions: HEK cells stably expressing human α1G; mainly non-inactivated protocol; values above 10,000 nM represented as 10000
human α1G T-type channels, sequence (O43497 whole entry): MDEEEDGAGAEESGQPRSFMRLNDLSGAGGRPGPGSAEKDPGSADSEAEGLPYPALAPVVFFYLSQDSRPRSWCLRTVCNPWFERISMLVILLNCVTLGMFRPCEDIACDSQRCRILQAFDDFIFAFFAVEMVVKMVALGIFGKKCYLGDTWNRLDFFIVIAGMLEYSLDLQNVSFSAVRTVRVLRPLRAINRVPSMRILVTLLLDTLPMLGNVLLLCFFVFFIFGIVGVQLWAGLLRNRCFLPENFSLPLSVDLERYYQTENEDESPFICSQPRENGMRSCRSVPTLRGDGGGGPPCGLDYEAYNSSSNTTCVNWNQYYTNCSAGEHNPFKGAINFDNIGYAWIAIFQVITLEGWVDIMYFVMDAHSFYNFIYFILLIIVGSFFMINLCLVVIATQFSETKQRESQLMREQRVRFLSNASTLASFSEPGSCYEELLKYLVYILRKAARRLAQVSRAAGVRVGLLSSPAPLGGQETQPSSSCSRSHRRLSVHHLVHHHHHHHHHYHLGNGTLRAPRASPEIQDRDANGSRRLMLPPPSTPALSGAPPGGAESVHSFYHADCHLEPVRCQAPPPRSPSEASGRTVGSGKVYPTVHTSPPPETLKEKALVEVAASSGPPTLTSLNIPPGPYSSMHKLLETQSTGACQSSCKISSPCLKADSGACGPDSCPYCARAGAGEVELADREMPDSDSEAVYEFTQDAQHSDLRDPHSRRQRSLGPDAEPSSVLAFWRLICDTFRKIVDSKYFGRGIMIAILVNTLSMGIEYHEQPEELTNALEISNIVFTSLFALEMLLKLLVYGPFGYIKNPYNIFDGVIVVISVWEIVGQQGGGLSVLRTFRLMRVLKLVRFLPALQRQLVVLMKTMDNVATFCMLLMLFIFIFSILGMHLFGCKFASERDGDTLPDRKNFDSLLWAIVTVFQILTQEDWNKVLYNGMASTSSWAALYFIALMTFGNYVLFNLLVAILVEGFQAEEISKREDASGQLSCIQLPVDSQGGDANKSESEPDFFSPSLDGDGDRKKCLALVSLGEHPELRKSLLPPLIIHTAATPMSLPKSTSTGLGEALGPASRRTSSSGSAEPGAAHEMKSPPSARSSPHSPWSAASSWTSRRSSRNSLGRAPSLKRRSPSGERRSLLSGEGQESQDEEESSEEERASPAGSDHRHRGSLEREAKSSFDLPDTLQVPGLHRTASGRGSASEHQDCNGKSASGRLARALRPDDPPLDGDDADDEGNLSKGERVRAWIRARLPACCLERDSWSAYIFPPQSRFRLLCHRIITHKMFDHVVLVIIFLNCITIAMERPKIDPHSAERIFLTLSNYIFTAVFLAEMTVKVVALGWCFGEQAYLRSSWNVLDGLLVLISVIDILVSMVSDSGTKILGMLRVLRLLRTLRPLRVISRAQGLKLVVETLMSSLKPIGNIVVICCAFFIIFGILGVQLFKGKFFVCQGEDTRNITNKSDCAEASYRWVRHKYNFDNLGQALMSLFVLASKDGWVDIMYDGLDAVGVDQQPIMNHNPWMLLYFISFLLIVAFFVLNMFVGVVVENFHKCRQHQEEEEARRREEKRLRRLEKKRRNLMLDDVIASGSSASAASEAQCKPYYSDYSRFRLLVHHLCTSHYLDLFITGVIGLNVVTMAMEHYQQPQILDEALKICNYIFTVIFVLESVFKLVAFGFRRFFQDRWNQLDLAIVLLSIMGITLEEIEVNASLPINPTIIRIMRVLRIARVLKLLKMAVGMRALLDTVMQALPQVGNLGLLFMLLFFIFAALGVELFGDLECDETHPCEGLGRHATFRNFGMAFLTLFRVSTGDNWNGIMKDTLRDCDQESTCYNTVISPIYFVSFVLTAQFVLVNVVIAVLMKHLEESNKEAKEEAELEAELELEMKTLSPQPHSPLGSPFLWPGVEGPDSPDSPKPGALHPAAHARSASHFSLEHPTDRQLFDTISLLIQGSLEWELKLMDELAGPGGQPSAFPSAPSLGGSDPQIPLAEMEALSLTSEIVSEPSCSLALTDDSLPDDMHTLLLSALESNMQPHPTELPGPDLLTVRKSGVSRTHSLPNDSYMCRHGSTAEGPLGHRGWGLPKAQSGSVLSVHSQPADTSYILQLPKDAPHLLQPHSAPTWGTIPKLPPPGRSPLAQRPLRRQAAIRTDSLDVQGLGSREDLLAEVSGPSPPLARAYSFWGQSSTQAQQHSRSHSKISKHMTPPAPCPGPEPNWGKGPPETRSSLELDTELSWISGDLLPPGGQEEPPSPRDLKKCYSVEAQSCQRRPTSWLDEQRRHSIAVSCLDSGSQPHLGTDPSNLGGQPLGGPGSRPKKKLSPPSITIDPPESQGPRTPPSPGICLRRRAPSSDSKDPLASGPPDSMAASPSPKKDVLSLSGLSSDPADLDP
Procedure, shortened: as §1

human α1H T-type channels, sequence (O95180 whole entry, the tested form may be a part): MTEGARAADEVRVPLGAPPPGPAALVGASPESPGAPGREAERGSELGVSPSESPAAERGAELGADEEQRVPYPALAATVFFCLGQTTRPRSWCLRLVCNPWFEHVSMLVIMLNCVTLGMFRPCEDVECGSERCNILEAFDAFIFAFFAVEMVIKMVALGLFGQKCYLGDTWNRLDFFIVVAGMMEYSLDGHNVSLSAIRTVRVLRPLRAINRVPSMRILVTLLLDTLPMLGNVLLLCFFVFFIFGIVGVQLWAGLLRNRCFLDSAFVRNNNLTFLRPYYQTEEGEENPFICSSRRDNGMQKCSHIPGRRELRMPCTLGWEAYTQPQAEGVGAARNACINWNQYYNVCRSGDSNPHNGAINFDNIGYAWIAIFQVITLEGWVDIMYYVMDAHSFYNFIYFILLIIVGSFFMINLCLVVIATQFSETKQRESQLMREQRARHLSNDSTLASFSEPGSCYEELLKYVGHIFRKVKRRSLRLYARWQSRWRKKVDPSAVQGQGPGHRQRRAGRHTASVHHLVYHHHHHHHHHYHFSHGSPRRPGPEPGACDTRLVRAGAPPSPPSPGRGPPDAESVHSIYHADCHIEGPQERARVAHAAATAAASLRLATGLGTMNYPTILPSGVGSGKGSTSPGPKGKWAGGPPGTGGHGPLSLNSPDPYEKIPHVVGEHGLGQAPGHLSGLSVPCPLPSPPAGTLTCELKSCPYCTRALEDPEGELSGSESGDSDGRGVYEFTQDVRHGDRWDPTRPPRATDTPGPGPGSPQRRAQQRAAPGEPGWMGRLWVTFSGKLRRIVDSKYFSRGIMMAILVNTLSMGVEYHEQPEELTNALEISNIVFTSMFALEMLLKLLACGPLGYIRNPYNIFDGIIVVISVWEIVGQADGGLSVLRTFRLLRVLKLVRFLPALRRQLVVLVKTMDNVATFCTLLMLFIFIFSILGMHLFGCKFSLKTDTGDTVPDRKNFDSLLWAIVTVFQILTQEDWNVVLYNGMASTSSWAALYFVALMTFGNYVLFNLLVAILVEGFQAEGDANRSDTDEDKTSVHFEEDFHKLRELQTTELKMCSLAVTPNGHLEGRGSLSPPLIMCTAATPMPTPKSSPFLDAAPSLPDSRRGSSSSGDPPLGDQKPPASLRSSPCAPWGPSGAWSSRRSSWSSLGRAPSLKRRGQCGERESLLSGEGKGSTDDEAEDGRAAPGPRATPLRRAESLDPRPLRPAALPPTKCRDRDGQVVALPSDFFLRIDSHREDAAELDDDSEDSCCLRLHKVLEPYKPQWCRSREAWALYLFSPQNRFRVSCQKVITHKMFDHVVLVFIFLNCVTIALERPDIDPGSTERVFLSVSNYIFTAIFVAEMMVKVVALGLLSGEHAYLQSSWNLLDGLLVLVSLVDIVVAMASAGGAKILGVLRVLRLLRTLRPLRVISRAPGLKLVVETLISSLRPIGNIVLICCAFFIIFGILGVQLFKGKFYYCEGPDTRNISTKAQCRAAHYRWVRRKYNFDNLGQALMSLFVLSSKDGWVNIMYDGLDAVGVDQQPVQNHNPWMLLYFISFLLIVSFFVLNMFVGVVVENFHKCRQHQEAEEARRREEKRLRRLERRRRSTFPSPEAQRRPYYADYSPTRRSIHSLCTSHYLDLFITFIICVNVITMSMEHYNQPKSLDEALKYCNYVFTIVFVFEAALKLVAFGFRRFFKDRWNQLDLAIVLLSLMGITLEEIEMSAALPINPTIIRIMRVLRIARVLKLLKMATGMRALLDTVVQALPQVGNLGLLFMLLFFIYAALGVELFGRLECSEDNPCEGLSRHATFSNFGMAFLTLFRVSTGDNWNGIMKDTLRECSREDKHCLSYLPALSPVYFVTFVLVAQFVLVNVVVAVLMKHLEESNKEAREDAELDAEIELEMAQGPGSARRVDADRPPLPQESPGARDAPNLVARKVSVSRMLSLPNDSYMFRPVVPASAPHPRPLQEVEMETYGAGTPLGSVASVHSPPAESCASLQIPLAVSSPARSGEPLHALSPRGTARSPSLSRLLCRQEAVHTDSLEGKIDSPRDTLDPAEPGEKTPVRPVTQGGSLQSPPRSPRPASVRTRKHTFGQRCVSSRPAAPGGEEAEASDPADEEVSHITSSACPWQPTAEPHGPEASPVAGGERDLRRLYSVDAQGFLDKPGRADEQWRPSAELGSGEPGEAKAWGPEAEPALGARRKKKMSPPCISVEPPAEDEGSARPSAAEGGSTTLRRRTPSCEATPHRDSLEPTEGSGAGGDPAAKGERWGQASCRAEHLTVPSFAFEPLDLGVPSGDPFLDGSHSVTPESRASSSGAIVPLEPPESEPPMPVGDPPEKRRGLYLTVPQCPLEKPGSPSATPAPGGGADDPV

IC50 [1] | IC50 [2] | IC50 [3] | Structure (SMILES)
320 nM | 790 nM | 630 nM | O=S(=O)(CCC(F)(F)F)N[C@H]1CC[C@@](F)(S(=O)(=O)c2cccc(C(F)(F)F)c2)CC1 [Compound 295, 3,3,3-trifluoro-N-((1S,4S)-4-fluoro-4-(3-(trifluoromethyl)phenylsulfonyl)cyclohexyl) propane-1-sulfonamide]
850 nM | 4230 nM | 2830 nM | Cn1cnc(S(=O)(=O)N[C@H]2CC[C@@](F)(S(=O)(=O)c3cccc(C(F)(F)F)c3)CC2)c1 [Compound 296, N-((1S,4S)-4-fluoro-4-(3-(trifluoromethyl)phenylsulfonyl)cyclohexyl)-1-methyl-1H-imidazole-4-sulfonamide]
300 nM | 720 nM | 850 nM | O=S(=O)(N[C@H]1CC[C@@](F)(S(=O)(=O)c2cccc(C(F)(F)F)c2)CC1)c1ccc(C(F)(F)F)cc1Cl [Compound 297, 2-chloro-N-((1S,4S)-4-fluoro-4-(3-(trifluoromethyl)phenylsulfonyl)cyclohexyl)-4-(trifluoromethyl) benzenesulfonamide]
240 nM | 850 nM | 880 nM | Cc1noc(C)c1S(=O)(=O)N[C@H]1CC[C@@](F)(S(=O)(=O)c2cccc(C(F)(F)F)c2)CC1 [Compound 298, N-((1S,4S)-4-fluoro-4-(3-(trifluoromethyl)phenylsulfonyl)cyclohexyl)-3,5-dimethylisoxazole-4-sulfonamide]
210 nM | 730 nM | 640 nM | O=S(=O)(N[C@H]1CC[C@@](F)(S(=O)(=O)c2cccc(C(F)(F)F)c2)CC1)c1ccccc1C(F)(F)F [Compound 299, N-((1S,4S)-4-fluoro-4-(3-(trifluoromethyl)phenylsulfonyl)cyclohexyl)-2-(trifluoromethyl) benzenesulfonamide]
430 nM | 700 nM | 280 nM | O=S(=O)(N[C@H]1CC[C@@](F)(S(=O)(=O)c2cccc(C(F)(F)F)c2)CC1)c1cccc(C(F)(F)F)c1 [Compound 300, N-((1S,4S)-4-fluoro-4-(3-(trifluoromethyl)phenylsulfonyl)cyclohexyl)-3-(trifluoromethyl) benzenesulfonamide]
850 nM | 400 nM | 970 nM | O=S(=O)(N[C@H]1CC[C@@](F)(S(=O)(=O)c2cccc(C(F)(F)F)c2)CC1)c1ccc(OC(F)(F)F)cc1 [Compound 302, N-((1S,4S)-4-fluoro-4-(3-(trifluoromethyl)phenylsultonyl)cyclohexyl)-4-(trifluoromethoxy) benzenesulfonamide]
4150 nM | 180 nM | 4340 nM | CC1(C(=O)N[C@H]2CC[C@@](F)(S(=O)(=O)c3cccc(C(F)(F)F)c3)CC2)CC1 [Compound 303, N-((1S,4S)-4-fluoro-4-(3-(tritluoromethyl)phenylsulfonyl)cyclohexyl)-1-methylcyclopropane carboxamide]
2440 nM | 230 nM | 1550 nM | O=C(N[C@H]1CC[C@@](F)(S(=O)(=O)c2cccc(C(F)(F)F)c2)CC1)[C@H]1C[C@@H]1c1ccccc1 [Compound 304, (1S,2S)-N-((1S,4R)-4-fluoro-4-(3-(trifluoromethyl)phenylsulfonyl)cyclohexyl)-2-phenylcyclopropane carboxamide]
> 10000 nM | 300 nM | > 10000 nM | O=C(N[C@H]1CC[C@@](F)(S(=O)(=O)c2cccc(C(F)(F)F)c2)CC1)C1CCC(F)(F)CC1 [Compound 305, 4,4-difluoro-N-((1S,4S)-4-fluoro-4-(3-(trifluoromethyl)phenylsulfonyl)cyclohexyl) cyclohexanecarboxamide]
7350 nM | 530 nM | 4960 nM | CC(C)(N)CN(C(=O)C(F)(F)F)[C@H]1CC[C@@](F)(S(=O)(=O)c2cccc(C(F)(F)F)c2)CC1 [Compound 306, N-(2-amino-2-methylpropyl)-2,2,2-trifluoro-N-((1S,4S)-4-tluoro-4-(3-(trifIuoromethyl)phenylsulfonyl)cyclohexyl) acetamide]
1540 nM | 3120 nM | 2410 nM | Cn1nc(C(F)(F)F)cc1C(=O)NC1(C)CCC(S(=O)(=O)c2cccc(C(F)(F)F)c2)CC1 (stereo not drawn) [Compound 307, 1-methyl-N-(1-methyl-4-(3-(trifluoromethyl)phenylsulfonyl)cyclohexyl)-3-(tritluoromethyl)-1H-pyrazole-5-carboxamide]
2270 nM | 1450 nM | 4200 nM | CC1(NC(=O)c2cc(C(F)(F)F)ccn2)CCC(S(=O)(=O)c2cccc(C(F)(F)F)c2)CC1 (stereo not drawn) [Compound 308, N-(1-methyl-4-(3-(trifluoromethyl)phenylsulfonyl)cyclohexyl)-4-(trifluoromethyl)picolinamide]
> 10000 nM | 1390 nM | 9900 nM | CC1(NC(=O)c2ccc(F)c(C(F)(F)F)c2)CCC(S(=O)(=O)c2cccc(C(F)(F)F)c2)CC1 (stereo not drawn) [Compound 309, 4-fluoro-N-(1-methyl-4-(3-(trifluoromethyl)phenylsulfonyl)cyclohexyl)-3-(trifluoromethyl)benzamide]
5710 nM | 1160 nM | 6340 nM | CC1(NC(=O)c2ccc(F)c(Cl)c2)CCC(S(=O)(=O)c2cccc(C(F)(F)F)c2)CC1 (stereo not drawn) [Compound 310, 3-chloro-4-fluoro-N-(1-methyl-4-(3-(trifluoromethyl)phenylsulfonyl)cyclohexyl) benzamide]
8500 nM | 650 nM | 5080 nM | CC1(NC(=O)c2ccc(C(F)(F)F)cc2S(C)(=O)=O)CCC(S(=O)(=O)c2cccc(C(F)(F)F)c2)CC1 (stereo not drawn) [Compound 311, N-(1-methyl-4-(3-(trifluoromethyl)phenylsulfonyl)cyclohexyl)-2-(methylsulfonyl)-4-(trifluoromethyl)benzamide]
1940 nM | 1020 nM | 2960 nM | CC1(NC(=O)c2ccc(C(F)(F)F)cn2)CCC(S(=O)(=O)c2cccc(C(F)(F)F)c2)CC1 (stereo not drawn) [Compound 312, N-(1-methyl-4-(3-(trifluoromethyl)phenylsulfonyl)cyclohexyl)-5-(trifluoromethyl)picolinamide]
> 10000 nM | 1980 nM | > 10000 nM | COc1cc(C(=O)NC2(C)CCC(S(=O)(=O)c3cccc(C(F)(F)F)c3)CC2)cc(Cl)n1 (stereo not drawn) [Compound 313, 2-chloro-6-methoxy-N-(1-methyl-4-(3-(trifluoromethyl)phenylsulfonyl)cyclohexyl) isonicotinamide]
2910 nM | 3120 nM | 3990 nM | CC1(NC(=O)c2ccc(C(F)(F)F)nc2S(C)(=O)=O)CCC(S(=O)(=O)c2cccc(C(F)(F)F)c2)CC1 (stereo not drawn) [Compound 316, N-(1-methyl-4-(3-(trifluoromethyl)phenylsulfonyl)cyclohexyl)-2-(methylsulfonyl)-6-(trifluoromethyl)nicotinamide]
860 nM | 2690 nM | 1140 nM | CC1(NC(=O)c2ncc(C(F)(F)F)cc2S(C)(=O)=O)CCC(S(=O)(=O)c2cccc(C(F)(F)F)c2)CC1 (stereo not drawn) [Compound 317, N-(1-methyl-4-(3-(trifluoromethyl)phenylsulfonyl)cyclohexyl)-3-(methylsulfonyl)-5-(trifluoromethyl)picolinamide]
3430 nM | 260 nM | 4820 nM | O=C(N[C@H]1CC[C@@H](S(=O)(=O)c2cc(F)cc(C(F)(F)F)c2)CC1)c1ccc(F)c(C(F)(F)F)c1 [Compound 319, 4-fluoro-N-((1S,4S)-4-(3-fluoro-5-(trifluoromethyl)phenylsulfonyl)cyclohexyl)-3-(trifluoromethyl)benzamide]
190 nM | 600 nM | 290 nM | O=C(N[C@H]1CC[C@@H](S(=O)(=O)c2cc(F)cc(C(F)(F)F)c2)CC1)c1ccc(F)c(Cl)c1 [Compound 320, 3-chloro-4-fluoro-N-((1S,4S)-4-(3-fluoro-5-(trifluoromethyl)phenylsulfonyl)cyclohexyl) benzamide]
630 nM | 500 nM | 3260 nM | O=C(N[C@H]1CC[C@@H](S(=O)(=O)c2cc(F)cc(C(F)(F)F)c2)CC1)c1ccc(Cl)c(OC(F)(F)F)c1 [Compound 322, 4-chloro-N-((1S,4S)-4-(3-fluoro-5-(trifluoromethyl)phenylsulfonyl)cyclohexyl)-3-(trifluoromethoxy)benzamide]
720 nM | 2410 nM | 1350 nM | O=C(N[C@H]1CC[C@@H](S(=O)(=O)c2cc(F)cc(C(F)(F)F)c2)CC1)c1ccnn1CC(F)(F)F [Compound 323, N-((1S,4S)-4-(3-fluoro-5-(trifluoromethyl)phenylsulfonyl)cyclohexyl)-1-(2,2,2-trifluoroethyl)-1Hpyrazole-5-carboxamide]
1220 nM | 1060 nM | 3180 nM | O=C(N[C@H]1CC[C@@](F)(S(=O)(=O)c2cc(F)cc(C(F)(F)F)c2)CC1)c1cc(C(F)(F)F)n[nH]1 [Compound 324, N-((1S,4S)-4-fluoro-4-(3-fluoro-5-(trifluoromethyl)phenylsulfonyl)cyclohexyl)-3-(trifluoromethyl)-1H-pyrazole-5-carboxamide]
